Data from patent publication US7297505B2, “Use of MDCK cell line to predict corneal penetration of drugs” (Alcon, Inc., priority 2004, dated 2007).

Legend:
cornea = test: Predicted corneal permeability from MDCK permeability by statistical model; conditions: Corneal Permeability=5.41(MDCK Permeability)−0.01(MDCK Permeability)^2; in nm/s
Source text: The method of the present invention comprises the following steps: (1) determining the MDCK permeation value for a drug molecule; and (2) entering said value in a suitable linear or quadratic statistical model to calculate a predicted corneal permeability value for said molecule. The statistical model is created by obtaining MDCK permeation values and corneal penetration values for at least two representative drug molecules, plotting those values on a graph and deriving a linear or quadratic statistical model from the graph.

P-gp (MDR1) = test: in vitro; conditions: dog, MDCK-MDR1
Source text: (§1) The present invention is directed to the use of a new in vitro model for evaluating the ability of a drug molecule to penetrate the cornea. The model involves the use of MDCK cell permeability values to predict the ability of drug molecules to penetrate the cornea. The MDCK permeability values of drug molecules can be determined by means of known methods, such as the methods described in the following scientific articles: • 1. Horio, M, Pastan, I, Gottesman, M M, and Handler, J S. Transepithelial transport of vinblastine by kidney-derived cell lines. Application of a new kinetic model to estimate in situ Km of the pump. […] Pan, B F, Dutt, A, and Nelson, J A. Enhanced transepithelial flux of cimetidine by Madin-Darby canine kidney cells overexpressing human P-glycoprotein. […] The entire contents of the above-cited references relating to methods for determining MDCK permeation values for drug molecules are hereby incorporated in the present specification by reference. […] Various commercial scientific laboratories may be utilized to obtain MDCK permeation values (e.g., Absorption Systems, Exton, Pa., USA).
(§2) In vitro MDCK cell permeability. Permeability and transport studies were conducted and the data were analyzed at Absorption Systems, Exton, Pa., using methods previously described.^12,13 MDCK(MDR) monolayers were grown to confluence on collagen-coated, microporous, polycarbonate membranes in 12-well Costar Transwell plates. To ensure monolayer integrity, the trans epithelial electrical resistance (TEER) was measured. […] The permeability assay buffer was Hank's Balanced Salt Solution containing 10 mM HEPES and 15 mM glucose at a pH of 7.0-7.2. Permeability through a cell-free (blank) membrane was studied to determine non-specific binding and free diffusion of the test article through the device. […] At each time point, 1 and 2 hours, a 200-μL aliquot was taken from the receiver chamber and replaced with fresh assay buffer. Cells were dosed on the apical side [apical-to-basolateral, absorptive transport, […]] or basolateral side [basolateral-to-apical, secretory transport, (B-A)] and incubated at 37° C. with 5% CO2 and 90% relative humidity. Each determination was performed in duplicate. Lucifer Yellow permeability was measured for each monolayer after the experiment, to ensure that the cell monolayer integrity and viability was not compromised by the test article.
(§3) To determine the transport of compounds in the absence of functional P-gp activity, the above experimental conditions were used but in the presence of the P-gp inhibitor cyclosporin A (CSA).^14 For the studies using CSA, cells were pre-incubated for 30 minutes with the inhibitor (10 μM) and washed; during the permeation determination period CSA (10 μM) was present on both sides of the membrane. The Papp A-B determined in the presence of CSA was taken as an estimate of the permeability attributed to passive diffusion for the compound (Papp PD).

MDCK(MDR) monolayers = test: in vitro; conditions: MDCK-MDR1
Source text: as §1, §2, §3

[1] = Ex vivo corneal penetration (perfusion chamber); format: in vitro ADME; conditions: rabbit; Table 2; read-out: Ex vivo Rabbit Corneal Permeability, Papp nm/s
Method: The intact eyes, along with the lids and conjunctival sacs were then enucleated and immediately stored in about 70 ml of fresh BSS PLUS® Sterile Irrigating Solution (Alcon Laboratories, Inc.) saturated with O2/CO2 (95:5). Within one hour, corneas were mounted in the modified perfusion chamber as described by Schoenwald and Huang (G1). BSS PLUS® solution was used as the receiving and rinsing solution throughout the perfusion experiments. Steady-state conditions were used in order to determine the apparent permeability coefficients. After mounting the corneas in the chamber, 7.5 mls of BSS PLUS® solution was added to the receiving chamber (endothelial side of the cornea). Then, 7 mls of 0.1 mMole solutions of each fluoroquinolone prepared in BSS PLUS® solution was added into the donor chamber (epithelial side of the cornea). Throughout the experiment, both solutions were bubbled continuously with O2/CO2 (95:5) at the rate of about one bubble per second. This provides mixing of the solution in each chamber, oxygenation of the cornea, and pH control. Samples (0.15 ml) were withdrawn from the receiving chamber at 30 min intervals over a period of five hours. BSS PLUS® solution (0.15 ml) was added back to the receiving chamber after each withdrawal to compensate for loss of volume.
At the end of each permeability experiment, The final volume of the receiving chambers was noted, and the viability of the corneas was assessed by determining their hydration level: The corneas were trimmed of excess scleral tissue and conjunctiva, blotted, weighed, dried overnight at room temperature under vacuum over phosphorus pentoxide, and then re-weighed.
C is the steady state measured concentration of […] in the donor solution in units of μg/ml or ppm; and 60 is the conversion of minutes to seconds.

Molecule	Predicted Corneal Permeability (cornea)	Papp at 10 μM (P-gp (MDR1)) [×10⁻⁶ cm/s]	MDCK^2 (MDCK(MDR) monolayers)	Papp at 5 h, 0.1 mMole [1] [×10⁻⁶ cm/s]	Post experiment Lucifer Yellow permeability in monolayers (MDCK(MDR) monolayers)
Nc1cc(Cl)c(N=C2NCCN2)c(Cl)c1 [Apraclonidine]	19.58	0.38	14.44	3.8	–
CC(C)NCC(O)COc1ccc(CCOCC2CC2)cc1 (stereo not drawn) [Betaxolol]	657.76	20.2	40804	60	–
O=C1CC2(CCCC2)CC(=O)N1CCCCN1CCN(c2ncccn2)CC1 [Buspirone]	675.82	32.5	105625	66.5	–
C[C@@H]1C[C@H]2[C@@H]3CCC4=CC(=O)C=C[C@]4(C)[C@@]3(F)[C@@H](O)C[C@]2(C)[C@@]1(O)C(=O)CO [Dexamethasone]	–	–	1428.84	–	–
O=C1OC2(c3ccc(O)cc3Oc3cc(O)ccc32)c2ccccc21 [Fluorescein]	33.83	0.66	43.56	16	–
NC(=O)Cc1cccc(C(=O)c2ccccc2)c1N [Nepafenac]	625.74	18.1	32761	74	–
CC[C@@H]1C(=O)OC[C@@H]1Cc1cncn1C [Pilocarpine]	177.99	3.68	1354.24	9.8	–
CC(C)(C)NC[C@H](O)COc1nsnc1N1CCOCC1 [Timolol]	164.91	3.39	1149.21	24	–
Lucifer Yellow	–	–	–	–	0.24-0.75 ×10^−6 cm/s
